In ChEMBL document CHEMBL1139829, “2-Benzenesulfonyl-8a-benzyl-hexahydro-2H-isoquinolin-6-ones as selective glucocorticoid receptor antagonists” (Bioorg Med Chem Lett, 2007):

Tests used:
Glucocorticoid receptor [1] = target: T1, Glucocorticoid receptor (Homo sapiens, UniProt P04150); test: Displacement of [3H]dexamethasone from human glucocorticoid receptor expressed in recombinant baculovirus
T1 sequence (P04150 whole entry): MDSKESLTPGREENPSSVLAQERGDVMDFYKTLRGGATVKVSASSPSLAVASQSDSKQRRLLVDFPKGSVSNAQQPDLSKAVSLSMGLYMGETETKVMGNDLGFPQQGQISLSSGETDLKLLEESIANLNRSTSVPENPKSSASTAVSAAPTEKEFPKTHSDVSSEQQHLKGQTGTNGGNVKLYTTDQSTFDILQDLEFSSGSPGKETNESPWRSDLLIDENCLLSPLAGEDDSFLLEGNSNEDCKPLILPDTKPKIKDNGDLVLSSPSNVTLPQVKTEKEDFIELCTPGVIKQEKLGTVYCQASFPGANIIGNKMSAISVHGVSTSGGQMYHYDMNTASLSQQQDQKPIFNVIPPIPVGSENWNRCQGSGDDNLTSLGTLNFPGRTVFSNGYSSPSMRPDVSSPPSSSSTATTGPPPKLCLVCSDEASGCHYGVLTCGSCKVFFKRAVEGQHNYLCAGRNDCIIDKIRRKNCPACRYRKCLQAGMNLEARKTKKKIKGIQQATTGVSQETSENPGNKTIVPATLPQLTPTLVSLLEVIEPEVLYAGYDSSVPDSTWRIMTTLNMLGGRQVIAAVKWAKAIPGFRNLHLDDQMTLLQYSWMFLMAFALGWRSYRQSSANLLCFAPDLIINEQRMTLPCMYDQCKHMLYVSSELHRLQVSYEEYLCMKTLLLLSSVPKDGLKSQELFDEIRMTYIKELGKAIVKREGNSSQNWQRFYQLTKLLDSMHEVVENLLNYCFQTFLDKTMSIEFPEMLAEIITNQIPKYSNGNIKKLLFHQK

Glucocorticoid receptor [2] = target: T1, Glucocorticoid receptor; test: Antagonist activity at human glucocorticoid receptor in SW1353 cells assessed as inhibition of dexamethasone-induced luciferase expression by MMTV5 reporter gene assay; format: functional, cell-based
Glucocorticoid receptor [3] = target: T1, Glucocorticoid receptor; test: Binding affinity to glucocorticoid receptor in SW1353 cells by whole-cell binding assay; format: cell-based
CYP2C9 = CYP2C9 (Homo sapiens, UniProt P11712); test: Inhibition of CYP2C9 at 1 uM; format: ADME
Sequence of CYP2C9 (P11712 whole entry): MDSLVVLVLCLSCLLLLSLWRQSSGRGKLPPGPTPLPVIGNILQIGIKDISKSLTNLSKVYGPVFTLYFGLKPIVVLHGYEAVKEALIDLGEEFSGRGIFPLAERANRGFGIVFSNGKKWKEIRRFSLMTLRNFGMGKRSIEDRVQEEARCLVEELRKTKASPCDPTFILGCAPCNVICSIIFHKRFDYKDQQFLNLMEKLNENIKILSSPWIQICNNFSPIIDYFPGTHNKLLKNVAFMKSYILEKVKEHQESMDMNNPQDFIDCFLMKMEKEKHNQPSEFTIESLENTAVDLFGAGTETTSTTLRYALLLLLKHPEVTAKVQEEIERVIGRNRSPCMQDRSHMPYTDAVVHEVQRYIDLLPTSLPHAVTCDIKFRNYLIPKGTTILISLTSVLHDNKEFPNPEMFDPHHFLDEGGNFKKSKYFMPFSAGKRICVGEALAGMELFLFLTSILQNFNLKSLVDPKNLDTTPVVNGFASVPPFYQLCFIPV

CYP2C19 = CYP2C19 (Homo sapiens, UniProt P33261); test: Inhibition of CYP2C19 at 1 uM; format: ADME
Sequence of CYP2C19 (P33261 whole entry): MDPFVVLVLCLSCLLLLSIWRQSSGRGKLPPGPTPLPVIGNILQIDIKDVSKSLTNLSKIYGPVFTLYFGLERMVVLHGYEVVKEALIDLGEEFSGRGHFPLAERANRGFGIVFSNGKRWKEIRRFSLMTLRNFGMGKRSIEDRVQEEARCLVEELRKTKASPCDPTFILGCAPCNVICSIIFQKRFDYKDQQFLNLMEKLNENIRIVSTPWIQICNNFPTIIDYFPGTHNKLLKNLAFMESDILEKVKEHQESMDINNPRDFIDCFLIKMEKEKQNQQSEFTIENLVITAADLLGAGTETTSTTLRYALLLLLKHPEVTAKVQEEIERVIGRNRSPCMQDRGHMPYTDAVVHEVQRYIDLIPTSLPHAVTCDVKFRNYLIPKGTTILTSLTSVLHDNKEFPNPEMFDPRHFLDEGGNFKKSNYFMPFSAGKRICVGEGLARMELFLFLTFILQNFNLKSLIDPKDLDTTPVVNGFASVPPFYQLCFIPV

CYP2D6 = CYP2D6 (Homo sapiens, UniProt P10635); test: Inhibition of CYP2D6 at 1 uM; format: ADME
Sequence of CYP2D6 (P10635 whole entry): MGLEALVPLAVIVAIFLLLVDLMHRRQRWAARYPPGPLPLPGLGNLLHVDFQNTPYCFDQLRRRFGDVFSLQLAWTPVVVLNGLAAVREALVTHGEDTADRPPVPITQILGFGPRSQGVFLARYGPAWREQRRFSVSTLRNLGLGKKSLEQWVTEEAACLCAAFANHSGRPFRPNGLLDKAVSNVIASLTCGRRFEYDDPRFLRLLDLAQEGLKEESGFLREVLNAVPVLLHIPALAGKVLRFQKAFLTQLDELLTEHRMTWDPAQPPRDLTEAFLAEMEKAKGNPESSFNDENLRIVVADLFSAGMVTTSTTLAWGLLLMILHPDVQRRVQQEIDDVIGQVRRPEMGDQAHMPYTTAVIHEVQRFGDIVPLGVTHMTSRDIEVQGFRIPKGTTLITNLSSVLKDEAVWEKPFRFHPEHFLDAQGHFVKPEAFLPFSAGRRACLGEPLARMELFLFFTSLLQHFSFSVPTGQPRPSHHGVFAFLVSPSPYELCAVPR

Structure (SMILES) | Ki (Glucocorticoid receptor [1]) | also measured
O=C1C=C2CCN(Cc3ccncc3)CC2(Cc2ccccc2)CC1 (racemic) | > 10000 nM | 
O=C1C=C2CCN(S(=O)(=O)c3ccc([N+](=O)[O-])cc3)CC2(Cc2ccccc2)CC1 (racemic) | 1250 nM | 
CC(C)(C)c1ccc(S(=O)(=O)N2CCC3=CC(=O)CCC3(Cc3ccc(F)cc3)C2)cc1 (racemic) | 5 nM | Ki (Glucocorticoid receptor [2]): > 1000 nM
O=C1C=C2CCN(S(=O)(=O)Nc3ccccc3)CC2(Cc2ccccc2)CC1 (racemic) | 1200 nM | 
COc1ccc(CN2CCC3=CC(=O)CCC3(Cc3ccccc3)C2)cc1 (racemic) | 2250 nM | 
O=C1C=C2CCN(S(=O)(=O)c3ccc(-c4ccccc4)cc3)CC2(Cc2ccccc2)CC1 (centres undefined) | 55 nM | 
O=C1C=C2CCN(Cc3ccccc3)CC2(Cc2ccccc2)CC1 (racemic) | 3700 nM | 
O=C1C=C2CCN(S(=O)(=O)c3cccc(Cl)c3)CC2(Cc2ccccc2)CC1 (racemic) | 432 nM | 
CC(=O)Nc1ccc(S(=O)(=O)N2CCC3=CC(=O)CCC3(Cc3ccccc3)C2)cc1 (racemic) | 750 nM | 
CC(C)(C)c1ccc(S(=O)(=O)N2CCC3=CC(=O)CC[C@@]3(Cc3ccccc3)C2)cc1 | > 10000 nM | 
O=C1C=C2CCN(C(=O)Nc3ccccc3)CC2(Cc2ccccc2)CC1 (racemic) | > 10000 nM | 
COc1ccc(S(=O)(=O)N2CCC3=CC(=O)CCC3(Cc3ccccc3)C2)cc1 (racemic) | 216 nM | 
Cc1ccc(S(=O)(=O)N2CCC3=CC(=O)CCC3(Cc3ccccc3)C2)cc1 (racemic) | 99 nM | 
COc1ccc(C[C@]23CCC(=O)C=C2CCN(S(=O)(=O)c2ccc(C(C)(C)C)cc2)C3)cc1 | 4 nM | Ki (Glucocorticoid receptor [2]): 200 nM; Ki (Glucocorticoid receptor [3]): 352 nM
COc1cccc(CC23CCC(=O)C=C2CCN(S(=O)(=O)c2ccc(C(C)(C)C)cc2)C3)c1 (centres undefined) | 76 nM | 
CS(=O)(=O)Nc1ccc(S(=O)(=O)N2CCC3=CC(=O)CCC3(Cc3ccccc3)C2)cc1 (racemic) | 950 nM | 
O=C1C=C2CCN(S(=O)(=O)c3ccc(F)cc3)CC2(Cc2ccccc2)CC1 (racemic) | 800 nM | 

Structure (SMILES) | Ki (Glucocorticoid receptor [1]) | also measured
CC(C)(C)c1ccc(S(=O)(=O)N2CCC3=CC(=O)CCC3(Cc3ccc(NS(C)(=O)=O)cc3)C2)cc1 (racemic) | 13 nM | Ki (Glucocorticoid receptor [2]): > 1000 nM
CC#C[C@@]1(O)CC[C@@]2(Cc3ccccc3)c3ccc(O)cc3CC[C@@H]2C1 | 0.6 nM | Ki (Glucocorticoid receptor [2]): 4 nM; Ki (Glucocorticoid receptor [3]): 5.5 nM
O=C1C=C2CCN(S(=O)(=O)c3ccccc3)CC2(Cc2ccccc2)CC1 (racemic) | 225 nM | 
CC(C)(C)c1ccc(S(=O)(=O)N2CCC3=CC(=O)CCC3(Cc3ccc(N4CCCCC4)cc3)C2)cc1 (racemic) | 9 nM | Ki (Glucocorticoid receptor [2]): > 1000 nM
CC(C)(C)c1ccc(S(=O)(=O)N2CCC3=CC(=O)CCC3(Cc3ccccc3)C2)cc1 (racemic) | 14 nM | Ki (Glucocorticoid receptor [2]): > 1000 nM
CS(=O)(=O)Nc1cccc(S(=O)(=O)N2CCC3=CC(=O)CCC3(Cc3ccccc3)C2)c1 (centres undefined) | 2100 nM | 
O=C1C=C2CCN(S(=O)(=O)c3ccc(N4CCOCC4)cc3)CC2(Cc2ccccc2)CC1 (centres undefined) | 64 nM | 
COc1cccc(OC)c1S(=O)(=O)N1CCC2=CC(=O)CCC2(Cc2ccccc2)C1 (racemic) | > 10000 nM | 
CC(C)(C)c1ccc(S(=O)(=O)N2CCC3=CC(=O)CCC3(Cc3ccc(-c4ccncc4)cc3)C2)cc1 (racemic) | 2 nM | Ki (Glucocorticoid receptor [2]): 180 nM; inhibition at 1 µM (CYP2C9): 76%; inhibition at 1 µM (CYP2C19): 61%; inhibition at 1 µM (CYP2D6): 44%
O=C1C=C2CCN(S(=O)(=O)c3ccccc3C(F)(F)F)CC2(Cc2ccccc2)CC1 (racemic) | 4450 nM | 
CC(C)(C)c1ccc(S(=O)(=O)N2CCC3=CC(=O)CCC3(Cc3ccc(C#N)cc3)C2)cc1 (racemic) | 65 nM | 
CN(C)S(=O)(=O)Nc1ccc(CC23CCC(=O)C=C2CCN(S(=O)(=O)c2ccc(C(C)(C)C)cc2)C3)cc1 (racemic) | 13 nM | Ki (Glucocorticoid receptor [2]): 323 nM
CC(C)(C)c1ccc(S(=O)(=O)N2CCC3=CC(=O)CCC3(Cc3ccc(N)cc3)C2)cc1 (racemic) | 99 nM | 
CC(C)(C)c1ccc(S(=O)(=O)N2CCC3=CC(=O)CCC3(Cc3ccc(N4CCOCC4)cc3)C2)cc1 (centres undefined) | 10 nM | Ki (Glucocorticoid receptor [2]): 400 nM
CC(C)(C)c1ccc(S(=O)(=O)N2CCC3=CC(=O)CCC3(Cc3ccc(Br)cc3)C2)cc1 (centres undefined) | 9 nM | Ki (Glucocorticoid receptor [2]): 200 nM
N#Cc1ccccc1S(=O)(=O)N1CCC2=CC(=O)CCC2(Cc2ccccc2)C1 (racemic) | 1000 nM | 
O=C1C=C2CCN(S(=O)(=O)c3ccc(Cl)cc3)CC2(Cc2ccccc2)CC1 (racemic) | 193 nM | 

Second part, led by results:

Ki (Glucocorticoid receptor [1]) | Structure (SMILES) | also measured
45 nM | CC(C)(C)c1ccc(S(=O)(=O)N2CCC3=CC(=O)CCC3(Cc3ccc([N+](=O)[O-])cc3)C2)cc1 (racemic) | 
> 10000 nM | O=C1C=C2CCN(C(=O)c3ccccc3)CC2(Cc2ccccc2)CC1 (racemic) | 
6 nM | COc1ccc(CC23CCC(=O)C=C2CCN(S(=O)(=O)c2ccc(C(C)(C)C)cc2)C3)cc1 (racemic) | Ki (Glucocorticoid receptor [2]): 230 nM
113 nM | CN(C)c1ccc(S(=O)(=O)N2CCC3=CC(=O)CCC3(Cc3ccccc3)C2)cc1 (racemic) | 
3000 nM | O=C1C=C2CCN(S(=O)(=O)c3cccc([N+](=O)[O-])c3)CC2(Cc2ccccc2)CC1 (racemic) | 
56 nM | CC(=O)Nc1ccc(CC23CCC(=O)C=C2CCN(S(=O)(=O)c2ccc(C(C)(C)C)cc2)C3)cc1 (racemic) | Ki (Glucocorticoid receptor [2]): > 1000 nM
163 nM | O=C1C=C2CCN(S(=O)(=O)c3ccc(Oc4ccccc4)cc3)CC2(Cc2ccccc2)CC1 (racemic) | 
> 10000 nM | CCCCC(=O)N1CCC2=CC(=O)CCC2(Cc2ccccc2)C1 (racemic) | 
196 nM | COc1cccc(S(=O)(=O)N2CCC3=CC(=O)CCC3(Cc3ccccc3)C2)c1 (racemic) | 
1300 nM | COc1ccc(S(=O)(=O)N2CCC3=CC(=O)CCC3(Cc3ccccc3)C2)cc1OC (racemic) | 
> 5000 nM | COc1ccc(N2CCC3=CC(=O)CCC3(Cc3ccccc3)C2)cc1 (centres undefined) | 
> 10000 nM | CCCCS(=O)(=O)N1CCC2=CC(=O)CCC2(Cc2ccccc2)C1 (racemic) | 
4 nM | CC(C)(C)c1ccc(S(=O)(=O)N2CCC3=CC(=O)CC[C@]3(Cc3ccccc3)C2)cc1 | Ki (Glucocorticoid receptor [2]): 200 nM
1950 nM | CS(=O)(=O)Nc1ccccc1S(=O)(=O)N1CCC2=CC(=O)CCC2(Cc2ccccc2)C1 (racemic) | 
15 nM | CN(C)c1ccc(CC23CCC(=O)C=C2CCN(S(=O)(=O)c2ccc(C(C)(C)C)cc2)C3)cc1 (racemic) | Ki (Glucocorticoid receptor [2]): > 1000 nM
137 nM | CS(=O)(=O)c1ccc(S(=O)(=O)N2CCC3=CC(=O)CCC3(Cc3ccccc3)C2)cc1 (racemic) | 
